# Experiments:
# Format in all cases: in vivo, mouse
# Active Caspase-3 = assay: Anti-active caspase-3 immunofluorescence
# Procedure: Tissue-mounted slides were processed for fluorescence microscopy as follows: Sections were rinsed in coplin jars for 45 minutes at room temperature (RT) in three changes of PBS. Sections were then incubated at RT for 30 minutes in a blocking permeabilization solution made of 5% normal goat serum (NGS), 5% normal rabbit serum (NRS) or 5% BlokHen II (Ayes Labs, Inc., Tigard, Oreg.), 0.05% Triton X-100 and PBS. Subsequently, the blocking solution was tipped off and the slides were rinsed in PBS for 2 minutes. […]
# [1] = system: Tyrosine Hydroxylase (dopaminergic cells); assay: Tyrosine hydroxylase immunohistochemistry; conditions: striatum, SG-fed, either time-point
# Procedure: Labelling of dopaminergic neurons in brain sections was identified by antibodies for tyrosine hydroxylase (Morrow, C. E., Bandstra, et al., (2001) Neurotoxicol Teratol. 23, 533-44) and indirect immunoperoxidase staining. Sections were incubated in blocking serum for 2 hours then with the primary antibody (rabbit anti-tyrosine hydroxylase, 1:500, Affinity Bioreagents, Golden, Colo., USA) for 3 hours at RT. Sections were rinsed and incubated in biotinylated goat anti-rabbit IgG (1:100; Vector laboratories Inc., Burlingame, USA) for 30 minutes at RT, then visualized using the ABC method (Vectastain Elite ABC kit, Vector Laboratories Inc.).
# The numbers of immunoreactive somata or inclusions were counted across the ventral horn of the spinal cord, across brain hemispheres, or per dorsal or ventral root with the 40× objective lens in a 600 μm/600 μm area within region perimeters defined by a mouse brain atlas (2001). For each animal, eight cross-sections per spinal cord or brain region were studied. An average of both the right and left ventral horn for each of the eight cross sections was generated giving a final averaged number for each animal in each of the spinal cord areas. […]
# Cytochrome c oxidase = Cytochrome c oxidase histochemistry; conditions: SG-fed vs control
# Procedure: Tissue-mounted slides were processed for […] in a manner adapted from (Seligman et al., J. Cell. Biol. 1968; 38: 1-14) and Wong-Riley, (1979), Brain Res. 171, 11-28. Sections were rinsed in coplin jars for 15 minutes at RT in three changes of PBS and subsequently incubated with a media comprised of 50 mg of 3,3′-diaminobenzidine tetrahydrochloride (DAB) (DAB substrate system, Vector Laboratories, Burlingame, Calif., USA), 90 mL 0.1M phosphate buffer, 20 mg cytochrome c (type III, Sigma-Aldrich Co., Oakville, ON, Canada), and 4 g of sucrose in a dish submerged in a water bath maintained at 37° C. in the dark for 2 hours. The sections were monitored closely for the brown reaction product to appear within the tissue. Once a medium-brown color was achieved, slides were removed from the incubation media and rinsed for 15 minutes in three changes of PBS to stop the reaction. This was followed with a 2 minutes rinse in distilled water to remove residue from the slides. The slides were dried under a fume hood and cover-slipped with Entellen (Merck, Darmstadt, Germany).
# The numbers of immunoreactive somata or inclusions were counted across the ventral horn of the spinal cord, across brain hemispheres, or per dorsal or ventral root with the 40× objective lens in a 600 μm/600 μm area within region perimeters defined by a mouse brain atlas (2001). For each animal, eight cross-sections per spinal cord or brain region were studied. […] For quantification of the level of mitochondrial activity (cytochrome c oxidase labelling) in the lumbar spinal cord or tyrosine hydroxylase immunoreactivity in the substantia nigra pars compacta and striatal sections, images captured using the Motic B5 Professional Series 3.0 microscope (Motic Instruments Inc., Richmond, ON) and analyzed using Motic B5 Professional, Motic Images Advanced 3.0 (Motic Instruments Inc., Richmond, ON) were scanned into a TIFF format file and analysed using the NIH Image J 1.37 software to measure density levels of antibody labelling. […]
compound,measurement,setting,value
"CC[C@H](/C=C/[C@@H](C)[C@H]1CC[C@H]2[C@@H]3CC=C4C[C@@H](O[C@@H]5O[C@H](CO)[C@@H](O)[C@H](O)[C@H]5O)CC[C@]4(C)[C@H]3CC[C@]12C)C(C)C [SG, Stigmasterol β-D-Glucopyranoside]",Apoptotic cells over time,Active Caspase-3; SG-fed group over time (35 to 52 wk),Apoptotic cells (SG-fed group over time) (ns)
same,Anti-active caspase 3 immunoreactive cells,"Active Caspase-3; SG-fed vs control, Time-point 2 (52 wk)",did not reach significance and (ns)
same,Decrease in tyrosine hydroxylase optical density in striata,[1],not significant
same,Cytochrome c oxidase activity,Cytochrome c oxidase; Time-point 1 (35 wk),(ns)
same,Cytochrome c oxidase activity,Cytochrome c oxidase; Time-point 2 (52 wk),(ns)
same,"Cytochrome c oxidase activity, difference between groups",Cytochrome c oxidase; at 35 or 52 weeks,no significant differences
